Assay results from patent US9149532B2, “Pharmaceutical composition” (DAIICHI SANKYO COMPANY, LIMITED, priority 2007, dated 2015).

Legend:
[1] = Solubility of compound (1) in aqueous solutions; format: physicochemical
[2] = Absorbability after oral administration; format: in vivo; conditions: orally administered to a subject

For CN1CCc2nc(C(=O)N[C@@H]3C[C@@H](C(=O)N(C)C)CC[C@@H]3NC(=O)C(=O)Nc3ccc(Cl)cn3)sc2C1 [compound (1), N^1-(5-chloropyridin-2-yl)-N^2-(4-[(dimethylamino)carbonyl]-2-{[(5-methyl-4,5,6,7-tetrahydrothiazolo[5,4-c]pyridin-2-yl)carbonyl]amino}cyclohexyl)ethanediamide], the solubility ([1]; neutral pH aqueous solution (e.g., neutral buffer solution)) was “solubility decreases”, the solubility ([1]; strong acidic aqueous solution) was “high solubility” and the absorbability [2] was “excellent absorbability”.
